# PubChem BioAssay (NCI)
#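 The compound was tested at five concentrations on cells cultured in 96-well plates, with a 48-hour exposure period. The concentration for 50% growth inhibition is given as GI50. TGI: total growth inhibition.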
# Columns and labels:
# Test in all cases: NCI anticancer screen, dose series, 48 h
# SR leukemia = system: SR leukemia
# SNB-75 CNS = system: SNB-75 CNS
# T-47D breast = system: T-47D breast
# HOP-92 NSCLC = system: HOP-92 NSCLC
# MDA-MB-435 = system: MDA-MB-435
# MALME-3M melanoma = system: MALME-3M melanoma
# SK-MEL-5 melanoma = system: SK-MEL-5 melanoma
# OVCAR-4 ovarian = system: OVCAR-4 ovarian
# SF-295 CNS = system: SF-295 CNS
# OVCAR-5 ovarian = system: OVCAR-5 ovarian
# UACC-257 melanoma = system: UACC-257 melanoma
# CCRF-CEM leukemia = system: CCRF-CEM leukemia
# LOX IMVI melanoma = system: LOX IMVI melanoma
# A549 NSCLC = system: A549 NSCLC
# NCI-H23 lung = system: NCI-H23 lung
# SK-MEL-28 melanoma = system: SK-MEL-28 melanoma
# HT29 colon = system: HT29 colon
# HCC-2998 colon = system: HCC-2998 colon
# SN12C renal = system: SN12C renal
# COLO 205 colon = system: COLO 205 colon
# RPMI-8226 leukemia = system: RPMI-8226 leukemia
# HCT-116 colon = system: HCT-116 colon
# NCI-H522 lung = system: NCI-H522 lung
# ACHN renal = system: ACHN renal
# M14 melanoma = system: M14 melanoma
# CAKI-1 renal = system: CAKI-1 renal
# PC-3 prostate = system: PC-3 prostate
# SK-MEL-2 melanoma = system: SK-MEL-2 melanoma
# U251 CNS = system: U251 CNS
# HOP-62 NSCLC = system: HOP-62 NSCLC
# IGROV1 ovarian = system: IGROV1 ovarian
# 786-0 renal = system: 786-0 renal
# SW-620 colon = system: SW-620 colon
# NCI-H226 lung = system: NCI-H226 lung
# KM12 colon = system: KM12 colon
# OVCAR-3 ovarian = system: OVCAR-3 ovarian
# A498 renal = system: A498 renal
# HL-60(TB) leukemia = system: HL-60(TB) leukemia
# MCF7 breast = system: MCF7 breast
# BT-549 breast = system: BT-549 breast
# SF-539 CNS = system: SF-539 CNS
# NCI-H460 lung = system: NCI-H460 lung
# NCI/ADR-RES ovarian = system: NCI/ADR-RES ovarian
# SNB-19 CNS = system: SNB-19 CNS
# EKVX NSCLC = system: EKVX NSCLC
# MDA-MB-231 breast = system: MDA-MB-231 breast
# UO-31 renal = system: UO-31 renal
# HCT-15 colon = system: HCT-15 colon
# UACC-62 melanoma = system: UACC-62 melanoma
# SK-OV-3 ovarian = system: SK-OV-3 ovarian
# TK-10 renal = system: TK-10 renal
# HS 578T breast = system: HS 578T breast
# RXF 393 renal = system: RXF 393 renal
# DU-145 prostate = system: DU-145 prostate
# OVCAR-8 ovarian = system: OVCAR-8 ovarian
# K-562 leukemia = system: K-562 leukemia
# SF-268 CNS = system: SF-268 CNS
# MOLT-4 leukemia = system: MOLT-4 leukemia
compound,measurement,setting,value
CN1CCN(c2ccc(NC(=O)Nc3ccc4c(ccn4-c4cccc(C(N)=O)n4)c3)cc2C(F)(F)F)CC1,GI50,SR leukemia,0.929 µM
same,TGI,SR leukemia,2.48 µM
same,GI50,SNB-75 CNS,5.06 µM
same,TGI,SNB-75 CNS,11.9 µM
same,GI50,T-47D breast,9.33 µM
same,TGI,T-47D breast,22.8 µM
same,GI50,HOP-92 NSCLC,6.91 µM
same,TGI,HOP-92 NSCLC,15.8 µM
same,GI50,MDA-MB-435,1.13 µM
same,TGI,MDA-MB-435,2.82 µM
same,GI50,MALME-3M melanoma,1.37 µM
same,TGI,MALME-3M melanoma,3.79 µM
same,GI50,SK-MEL-5 melanoma,0.964 µM
same,TGI,SK-MEL-5 melanoma,2.08 µM
same,GI50,OVCAR-4 ovarian,8.09 µM
same,TGI,OVCAR-4 ovarian,21.9 µM
same,GI50,SF-295 CNS,0.969 µM
same,TGI,SF-295 CNS,2.15 µM
same,GI50,OVCAR-5 ovarian,7.54 µM
same,TGI,OVCAR-5 ovarian,17 µM
same,GI50,UACC-257 melanoma,1.11 µM
same,TGI,UACC-257 melanoma,2.66 µM
same,GI50,CCRF-CEM leukemia,1.4 µM
same,TGI,CCRF-CEM leukemia,3.18 µM
same,GI50,LOX IMVI melanoma,0.969 µM
same,TGI,LOX IMVI melanoma,2.03 µM
same,GI50,A549 NSCLC,5.2 µM
same,TGI,A549 NSCLC,13.3 µM
same,GI50,NCI-H23 lung,7.61 µM
same,TGI,NCI-H23 lung,19.3 µM
same,GI50,SK-MEL-28 melanoma,0.939 µM
same,TGI,SK-MEL-28 melanoma,1.91 µM
same,GI50,HT29 colon,1.29 µM
same,TGI,HT29 colon,5.5 µM
same,GI50,HCC-2998 colon,6.28 µM
same,TGI,HCC-2998 colon,14 µM
same,GI50,SN12C renal,8.1 µM
same,TGI,SN12C renal,18.5 µM
same,GI50,COLO 205 colon,5.91 µM
same,TGI,COLO 205 colon,15.4 µM
same,GI50,RPMI-8226 leukemia,1.17 µM
same,TGI,RPMI-8226 leukemia,2.65 µM
same,GI50,HCT-116 colon,0.858 µM
same,TGI,HCT-116 colon,1.84 µM
same,GI50,NCI-H522 lung,10.1 µM
same,TGI,NCI-H522 lung,20.8 µM
same,GI50,ACHN renal,6.95 µM
same,TGI,ACHN renal,14.1 µM
same,GI50,M14 melanoma,0.991 µM
same,TGI,M14 melanoma,2.21 µM
same,GI50,CAKI-1 renal,6.47 µM
same,TGI,CAKI-1 renal,13.5 µM
same,GI50,PC-3 prostate,3.34 µM
same,TGI,PC-3 prostate,11 µM
same,GI50,SK-MEL-2 melanoma,5.17 µM
same,TGI,SK-MEL-2 melanoma,12.4 µM
same,GI50,U251 CNS,1.33 µM
same,TGI,U251 CNS,6.64 µM
same,GI50,HOP-62 NSCLC,5.89 µM
same,TGI,HOP-62 NSCLC,12.9 µM
same,GI50,IGROV1 ovarian,9.04 µM
same,TGI,IGROV1 ovarian,20.4 µM
same,GI50,786-0 renal,0.834 µM
same,TGI,786-0 renal,2 µM
same,GI50,SW-620 colon,1.27 µM
same,TGI,SW-620 colon,2.91 µM
same,GI50,NCI-H226 lung,8.61 µM
same,TGI,NCI-H226 lung,20.4 µM
same,GI50,KM12 colon,2.25 µM
same,TGI,KM12 colon,9.23 µM
same,GI50,OVCAR-3 ovarian,8.35 µM
same,TGI,OVCAR-3 ovarian,16.4 µM
same,GI50,A498 renal,7.74 µM
same,TGI,A498 renal,14.8 µM
same,GI50,HL-60(TB) leukemia,5.59 µM
same,TGI,HL-60(TB) leukemia,13.5 µM
same,GI50,MCF7 breast,0.878 µM
same,TGI,MCF7 breast,2.02 µM
same,GI50,BT-549 breast,5.21 µM
same,TGI,BT-549 breast,12.5 µM
same,GI50,SF-539 CNS,1.92 µM
same,TGI,SF-539 CNS,8.07 µM
same,GI50,NCI-H460 lung,1.74 µM
same,TGI,NCI-H460 lung,5.88 µM
same,GI50,NCI/ADR-RES ovarian,9.47 µM
same,TGI,NCI/ADR-RES ovarian,24.2 µM
same,GI50,SNB-19 CNS,5.99 µM
same,TGI,SNB-19 CNS,16.4 µM
same,GI50,EKVX NSCLC,6.9 µM
same,TGI,EKVX NSCLC,16.3 µM
same,GI50,MDA-MB-231 breast,6.53 µM
same,TGI,MDA-MB-231 breast,19.1 µM
same,GI50,UO-31 renal,7.38 µM
same,TGI,UO-31 renal,15.6 µM
same,GI50,HCT-15 colon,1.66 µM
same,TGI,HCT-15 colon,7.33 µM
same,GI50,UACC-62 melanoma,5.65 µM
same,TGI,UACC-62 melanoma,13.8 µM
same,GI50,SK-OV-3 ovarian,7.14 µM
same,TGI,SK-OV-3 ovarian,13.8 µM
same,GI50,TK-10 renal,8.51 µM
same,TGI,TK-10 renal,16.3 µM
same,GI50,HS 578T breast,2.68 µM
same,TGI,HS 578T breast,12.5 µM
same,GI50,RXF 393 renal,1.06 µM
same,TGI,RXF 393 renal,2.5 µM
same,GI50,DU-145 prostate,5.97 µM
same,TGI,DU-145 prostate,14.5 µM
same,GI50,OVCAR-8 ovarian,10.1 µM
same,TGI,OVCAR-8 ovarian,25.1 µM
same,GI50,K-562 leukemia,0.938 µM
same,TGI,K-562 leukemia,2.17 µM
same,GI50,SF-268 CNS,6.71 µM
same,TGI,SF-268 CNS,18 µM
same,GI50,MOLT-4 leukemia,1.02 µM
same,TGI,MOLT-4 leukemia,2.24 µM
